Reference: PMC12301332, “Biased antagonism of a series of bicyclic CXCR2 intracellular allosteric modulators” (Frontiers in Pharmacology, 2025)
Read-outs that look alike come from different tables or passages of the source.

How the values were obtained:
[1] = target: T1, CXCR2 (Homo sapiens, UniProt P25025); experiment: NanoBRET β-arrestin1 recruitment inhibition assay (NanoLux) in HEK293A cells; assay type: cell-based; details: for Imax βarr1 (maximum observed inhibitory effect): normalized to Imax of navarixin = 100%
T1 construct: expressed in transfected cells
T1 sequence (P25025 1-360): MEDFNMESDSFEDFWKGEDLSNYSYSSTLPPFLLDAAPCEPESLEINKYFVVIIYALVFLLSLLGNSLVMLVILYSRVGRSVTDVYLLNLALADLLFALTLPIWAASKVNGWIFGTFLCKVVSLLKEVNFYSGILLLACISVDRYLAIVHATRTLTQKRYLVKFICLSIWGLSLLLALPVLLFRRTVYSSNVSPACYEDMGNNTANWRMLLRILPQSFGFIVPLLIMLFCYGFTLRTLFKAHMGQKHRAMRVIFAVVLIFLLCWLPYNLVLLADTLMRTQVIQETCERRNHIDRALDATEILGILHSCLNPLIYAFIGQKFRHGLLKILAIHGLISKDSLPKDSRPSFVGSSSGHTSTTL
Description: Cells were trypsinized and resuspended at 3 × 10^5 cell/mL in the growth medium, whereafter they were incubated for 2 hours at RT. Cells were transfected in suspension using FuGENE® HD Transfection Reagent at a 3:1 reagent to DNA ratio in Opti-MEMTM I Reduced-Serum Medium, with the final DNA concentration of 1 μg/μL. The transfection mixture was incubated for 10 min at RT before adding it to the cell suspension. Transfected cells were seeded at 3.0 × 10^4 cells/well in a white, clear, flat-bottom 96-well plate coated with 100 μg/mL poly-D-lysin ([…], Sigma Aldrich) and incubated for 48 h at 37°C and 5% CO2. HEK293A cells were transiently co-transfected with plasmids encoding β-arrestin1 protein tagged with NLuc (donor) and CXCR2 protein tagged with mNeonGreen (mNG) acceptor in a 1:10 donor to acceptor ratio, as described previously ([Luís et al., 2022]). All subsequent steps are identical to those in “NanoBRET-based G protein activation inhibition assay,” which are described above. Measurements were acquired using a 440- to 480-nm donor emission filter (#0200-6179, Molecular Devices) and a 515- to 575-nm acceptor emission filter (#0200-6203, Molecular Devices) BRET ratios were extracted from ScreenWorks software (Molecular Devices) and represent the ratio between the acceptor emission of […]2 or mNG (G protein or β-arrestin recruitment, respectively) and NLuc donor emission. The basal BRET ratio was defined as the average BRET ratio of the five consecutive readings preceding ligand addition. Changes in BRET values post ligand administration (ΔBRET) were calculated for each well as a percentage difference to the previously defined basal BRET ratio. Average ΔBRET values were baseline corrected by subtracting the average negative control BRET ratio (unstimulated condition). […] AUCs were normalized to the positive control (stimulated condition); whereafter, dose-response curves were fitted to log (inhibitor) vs response (three parameters) in GraphPad 10.2.0 (GraphPad Software). […] Calculation 1: calculation of the BRET signal. • 1. […] NC correctedΔBRET=Δ[…]. • 4. a. Neg AUC of NC correctedΔBRET=Gα activation read out. b. Pos AUC of NC correctedΔBRET=β-arrestin recruitment.

[2] = target: T1, CXCR2; experiment: Bias analysis (bias plot, bias index) of β-arrestin1 recruitment inhibition versus Gαi1 activation inhibition, navarixin as reference; assay type: cell-based; details: for bias index vs navarixin, statistical significance (H1): one-sample T-test; for differences in bias index between the various CXCR2 ligands (H2): one-way ANOVA followed by Tukey's test
Description: For signaling bias calculations, constraints were set to bottom values equal to zero. The calculated top values generated by nonlinear fit log (inhibitor) vs response (three parameters) in GraphPad 10.2.1 were taken as Imax. […] The bias index values were calculated, as is shown in calculation 2. Briefly, log(Imax/IC50) was calculated. […] Finally, the bias index was calculated by subtracting the ∆log (Imax/IC50) of the tested compound from the stated reference pathway from that of the pathway of interest. […] The statistical significance of H1 was evaluated using a one-sample T-test with Benjamini-Hochberg correction applied for multiple comparisons, whereas H2 was assessed using a one-way ANOVA followed by Tukey’s test.
Bias index=∆LogImax/IC50P1:β−arr1−∆LogImax/IC50P2:Gai1 .
Bias plots are equimolar comparisons between the two pathways of interest.

[3] = CXCL1 at EC80, mean, n = 3, read-out: IC50 βarr1
[4] = CXCL2 at EC80, mean, n = 3, read-out: IC50 βarr1
[5] = CXCL3 at EC80, mean, n = 3, read-out: IC50 βarr1
[6] = CXCL5 at EC80, mean, n = 3, read-out: IC50 βarr1
[7] = CXCL6 at EC80, mean, n = 3, read-out: IC50 βarr1
[8] = CXCL7 at EC80, mean, n = 3, read-out: IC50 βarr1
[9] = CXCL8 at EC80, mean, n = 3, read-out: IC50 βarr1

Compound	IC50 [1, 3] [nM]	Imax βarr1 (maximum observed inhibitory effect) ([1]; CXCL1 at EC80, n = 3) [%]	IC50 [1, 4] [nM]	Imax βarr1 (maximum observed inhibitory effect) ([1]; CXCL2 at EC80, n = 3) [%]	IC50 [1, 5] [nM]	Imax βarr1 (maximum observed inhibitory effect) ([1]; CXCL3 at EC80, n = 3) [%]	IC50 [1, 6] [nM]	Imax βarr1 (maximum observed inhibitory effect) ([1]; CXCL5 at EC80, n = 3) [%]	IC50 [1, 7] [nM]	Imax βarr1 (maximum observed inhibitory effect) ([1]; CXCL6 at EC80, n = 3) [%]	IC50 [1, 8] [nM]	Imax βarr1 (maximum observed inhibitory effect) ([1]; CXCL7 at EC80, n = 3) [%]	IC50 [1, 9] [nM]	Imax βarr1 (maximum observed inhibitory effect) ([1]; CXCL8 at EC80, n = 3) [%]	bias index vs navarixin, statistical significance (H1) ([2]; CXCL1-induced responses)	bias index vs navarixin, statistical significance (H1) ([2]; CXCL2, CXCL5, and CXCL6 responses)	differences in bias index between the various CXCR2 ligands (H2) [2]	IC50 ([1]; range across ELR+ chemokines, read-out: IC50 β-arrestin1 recruitment inhibition) [nM]	bias index vs navarixin, statistical significance (H1) ([2]; CXCL1-, CXCL2-, CXCL5-, CXCL6-, and CXCL8-induced responses)
CC(CO)Nc1nc(SCc2cccc(F)c2F)nc2cnccc12 (stereo not drawn) [MVH-3]	980 ± 180	100	580 ± 170	100	1590 ± 430	100	840 ± 160	100	700 ± 170	100	160 ± 50	95.75 ± 3.49	1340 ± 450	90.8 ± 4.62	highly significant	nonsignificantly different from navarixin	statistically significant	–	–
CC(CO)Nc1nc(SCc2cccc(F)c2F)nc2oncc12 (stereo not drawn) [MVH-24]	170 ± 60	100	80 ± 40	100	140 ± 50	99.42 ± 0.85	90 ± 30	100	70 ± 20	100	30 ± 10	100	150 ± 40	100	–	–	–	30 to 170	nonsignificantly different from navarixin
CC(CCO)Nc1nc(SCc2cccc(F)c2F)nc2[nH]nnc12 (stereo not drawn) [MVH-33]	1460 ± 580	98.15 ± 4.28	660 ± 210	92.98 ± 2.58	1530 ± 260	96.91 ± 2.10	1120 ± 260	100	790 ± 370	93.68 ± 7.03	340 ± 130	100	1510 ± 1010	100	–	–	statistically significant	–	–
